From patent US5334582A, “Pharmaceutical bacteriocin compositions and methods for using the same” (Applied Microbiology, Inc., priority 1993, dated 1994)
Where two headings read alike, the source gives them in different places.

Legend:
Escherichia coli = conditions: for % survival at 1 min: nisin 100 μg/ml and/or EDTA 1.0 mM
Experimental: The rapid activities of various chelator-enhanced nisin formulations were evaluated in acid vehicles in a germicidal suspension assay.
E. coli cells from an overnight Trypticase soy nutrient agar (TSA) were resuspended to a density measured as an absorbance of 1.0 at 600 nm in sterile ddH2 O. The reaction of the cells with each of the bactericidal test formulations analyzed is started by addition of 30 μl of cells to 970 μl of test formulation. The reaction mixture was incubated at 37° C. for at least 1 minute and then centrifuged in a microfuge for 1 minute. The cell pellet was washed by resuspension in 1 ml of neutralization buffer. (The neutralization buffer: 50 mM Tris-HCl, pH 7.0, 5 mM MgSO4, 20 mM CaCl2, 0.1 M NaCl and 0.1% gelatin was prepared by first making Tris buffer and adjusting the pH. The salts and gelatin were then added and the solution stirred with heat until the solution was clear. The solution was then autoclaved for 20 min. The neutralization buffer was used without dilution.) The cells were centrifuged in a microfuge for 1 minute and resuspended in 1 ml of neutralization buffer. The viable count was determined by spreading 100 μl of bacterial suspension and serial dilutions thereof in neutralization buffer on nutrient agar and scoring surviving colonies after 24 h at 37° C. Percent survival relative to untreated controls was calculated from the scored values.

E. coli strain ATCC8739 = assay: nisin-citrate agar growth inhibition assay; type: cell-based; conditions: Trypticase Soy Agar
Experimental: However, nisin in the presence of citrate is active against gram negative bacteria. […] This nisin-citrate agar assay has much more general applicability. The assay provides a method for screening potential agents other than citrate in combination with nisin for their potential properties as enhancers of nisin's inherent bactericidal activity.
E. coli is resuspended to an optical density of 1.0 at A600. A 100 μl sample of the bacterial suspension is spread uniformly on Trypticase Soy nutrient agar (TSA) supplemented with various concentrations of citrate (eg. 0.1%, 0.3%, 1.0%, 3.0%) and incubated for 1 hour at 37° C. A nisin stock solution and serial dilutions thereof in 0.1% bovine serum albumin (BSA), are prepared and 5 μl are taken from each and deposited onto the growing bacterial lawn. The TSA plates are then incubated for 24 hours at 37° C. After 24 hours at 37° C., E. coli grown on TSA supplemented with citrate form a confluent lawn. […] The effectiveness of nisin against the gram negative bacteria can be assessed from determining the minimum amount of nisin required to produce a clear zone of growth inhibition. As the concentration of citrate in the nutrient agar is increased, less nisin is required to inhibit the growth of E. coli, as is illustrated by the data shown in Table 6.

[1] = 0.1% w/v acetate pH 3.5, 37° C.
[2] = 0.1% w/v citrate pH 3.5, 37° C.
[3] = 0.1% w/v lactate pH 3.5, 37° C.
[4] = 0.3% w/v acetate pH 3.5, 37° C.
[5] = 0.3% w/v citrate pH 3.5, 37° C.
[6] = 0.3% w/v lactate pH 3.5, 37° C.
[7] = 1.0% w/v acetate pH 3.5, 37° C.
[8] = 1.0% w/v citrate pH 3.5, 37° C.
[9] = 3.0% w/v citrate pH 3.5, 37° C.
[10] = pH 2.0, 20 mM Na acetate buffer, 37° C., initial count 4 × 10^7 cfu/ml

| Molecule | % survival at 1 min (Escherichia coli; [1]) [%] | % survival at 1 min (Escherichia coli; [2]) [%] | % survival at 1 min (Escherichia coli; [3]) [%] | % survival at 1 min (Escherichia coli; [4]) [%] | % survival at 1 min (Escherichia coli; [5]) [%] | % survival at 1 min (Escherichia coli; [6]) [%] | % survival at 1 min (Escherichia coli; [7]) [%] | % survival at 1 min (Escherichia coli; [8]) [%] | % survival at 1 min (Escherichia coli; 1.0% w/v lactate pH 3.5, 37° C.) [%] | % survival at 1 min (Escherichia coli; [9]) [%] | % survival at 1 min (Escherichia coli; [10]) [%] | % survival at 1 min (Escherichia coli; 3.0% w/v acetate pH 3.5, 37° C.) [%] | activity towards gram negative bacteria (Escherichia coli; nisin by itself or in the presence of citrate) | % survival at 1 min (Escherichia coli; pH 3.5, 20 mM Na acetate buffer, 37° C.) [%] | % survival at 1 min (Escherichia coli; pH 4.0, 20 mM Na acetate buffer, 37° C.) [%] | Nisin NIC (nominal inhibitory concentration minimally required to prevent growth) (E. coli strain ATCC8739; 0% citrate) | Nisin NIC (nominal inhibitory concentration minimally required to prevent growth) (E. coli strain ATCC8739; 0.1% citrate) [µg/mL] | Nisin NIC (nominal inhibitory concentration minimally required to prevent growth) (E. coli strain ATCC8739; 0.3% citrate) [µg/mL] | Nisin NIC (nominal inhibitory concentration minimally required to prevent growth) (E. coli strain ATCC8739; 1.0% citrate) [µg/mL] | Nisin NIC (nominal inhibitory concentration minimally required to prevent growth) (E. coli strain ATCC8739; 3.0% citrate) [µg/mL] |
| --- | --- | --- | --- | --- | --- | --- | --- | --- | --- | --- | --- | --- | --- | --- | --- | --- | --- | --- | --- | --- |
| O=C(O)CN(CCN(CC(=O)O)CC(=O)O)CC(=O)O [EDTA] | 40 | 100 | 5.1 | 25 | 50.0 | 0.46 | 25 | 47.9 | 0.91 | 100 | 0.07 |  |  |  |  |  |  |  |  |  |
| nisin | 9.6 | 0.003 | 4.4 | 70 | 0.0007 | 0.24 | 100 | 0.56 |  | 14.6 | 0.28 | 100 | ineffective | 100 | 100 | 3,333 μg/ml | 370 | 123 | 13.7 | 0.06 |
